Laboratory results published in patent US12428406B2 (PMV Pharmaceuticals, Inc., priority 2019, dated 2025).

Target: T1, p53 Y220C (Homo sapiens, UniProt P04637, Y220C)
T1 construct: The recombinant protein was a truncation mutant containing only amino acids 94-312 of p53; made in house; host or cells: E. coli
Experiment: In vitro DNA binding activity assay (HTRF / TR-FRET): stabilization of p53 Y220C and increase of its DNA binding activity
Type: biochemical
Details: recombinant His-tagged p53 Y220C DNA binding domain (aa 94-312), biotin-labeled consensus DNA, incubated at 27° C. or 29° C. for 60 min
Outline: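 Test compounds, diluted 3-fold in DMSO from 4.5 mM stocks, were incubated with bacterially expressed His-tagged p53 Y220C at room temperature for 15 min, and after a further step for 20 min. DNA binding was detected by time-resolved FRET between APC and europium labels. SC150 marks the concentration increasing binding by 50%.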

T1 sequence (P04637 94-312, change not shown): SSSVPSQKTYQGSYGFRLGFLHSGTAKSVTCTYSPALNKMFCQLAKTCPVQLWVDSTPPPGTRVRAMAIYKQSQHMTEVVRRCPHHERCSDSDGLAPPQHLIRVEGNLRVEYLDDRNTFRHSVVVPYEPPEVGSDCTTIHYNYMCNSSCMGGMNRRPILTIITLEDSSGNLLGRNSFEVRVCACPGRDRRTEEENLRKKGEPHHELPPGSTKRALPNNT

| SC150 (concentration of the compound required to increase the DNA binding activity by 50%) | Compound |
| --- | --- |
| + (+ = 0 μM ≤ SC150 < 0.05 μM) | COC[C@@H](CN1CCC(Nc2cccc3c2cc(C#CCNc2ccc(S(C)(=O)=O)cc2OC)n3CC(F)(F)F)CC1)OC(=O)C(C)C [Compound 635A, (2R)-1-{4-[(2-{3-[(4-methanesulfonyl-2-methoxyphenyl)amino]prop-1-yn-1-yl}-1-(2,2,2-trifluoroethyl)-1H-indol-4-yl)amino]piperidin-1-yl}-3-methoxypropan-2-yl 2-methylpropanoate] |
| + (+ = 0 μM ≤ SC150 < 0.05 μM) | COCCOc1cc(S(C)(=O)=O)ccc1NCC#Cc1cc2c(NC3CCN(CC(O)COC)CC3)cccc2n1CC(F)(F)F (stereo not drawn) [Compound 637A, 1-(4-{[2-(3-{[4-methanesulfonyl-2-(2-methoxyethoxy)phenyl]amino}prop-1-yn-1-yl)-1-(2,2,2-trifluoroethyl)-1H-indol-4-yl]amino}piperidin-1-yl)-3-methoxypropan-2-ol] |
| + (+ = 0 μM ≤ SC150 < 0.05 μM) | COC[C@H](CN1CCC(Nc2cccc3c2cc(C#CCNc2ccc(S(C)(=O)=O)cc2OC)n3CC(F)(F)F)CC1)OC(=O)C(C)C [Compound 638A, (2S)-1-{4-[(2-{3-[(4-methanesulfonyl-2-methoxyphenyl)amino]prop-1-yn-1-yl}-1-(2,2,2-trifluoroethyl)-1H-indol-4-yl)amino]piperidin-1-yl}-3-methoxypropan-2-yl 2-methylpropanoate] |
| + (+ = 0 μM ≤ SC150 < 0.05 μM) | COCC(O)CN1CCC(Nc2cccc3c2cc(C#CCNc2ccc(S(C)(=O)=O)cc2OCC#N)n3CC(F)(F)F)CC1 (stereo not drawn) [Compound 642A, 2-(2-{[3-(4-{[1-(2-hydroxy-3-methoxypropyl)piperidin-4-yl]amino}-1-(2,2,2-trifluoroethyl)-1H-indol-2-yl)prop-2-yn-1-yl]amino}-5-methanesulfonylphenoxy) acetonitrile] |
| +++ (+++ = 0.1 μM ≤ SC150 < 0.2 μM) | COCC(O)CN1CCC(Nc2c(OC)ccc3c2cc(C#CCNc2ccc(S(C)(=O)=O)cc2OC)n3CC(F)(F)F)CC1 (stereo not drawn) [Compound 643A, 1-{4-[(2-{3-[(4-methanesulfonyl-2-methoxyphenyl)amino]prop-1-yn-1-yl}-5-methoxy-1-(2,2,2-trifluoroethyl)-1H-indol-4-yl)amino]piperidin-1-yl}-3-methoxypropan-2-ol] |
| + (+ = 0 μM ≤ SC150 < 0.05 μM) | COCC(O)CN1CCC(Nc2cccc3c2cc(C#CCNc2ccc(S(C)(=O)=O)cc2OCCO)n3CC(F)(F)F)CC1 (stereo not drawn) [Compound 644A, 1-(4-{[2-(3-{[2-(2-hydroxyethoxy)-4-methanesulfonylphenyl]amino}prop-1-yn-1-yl)-1-(2,2,2-trifluoroethyl)-1H-indol-4-yl]amino}piperidin-1-yl)-3-methoxypropan-2-ol] |
| + (+ = 0 μM ≤ SC150 < 0.05 μM) | COCC(O)CN1CCC(Nc2cccc3c2cc(C#CCNc2ccc(S(C)(=O)=O)cc2OCC(F)(F)F)n3CC(F)(F)F)CC1 (stereo not drawn) [Compound 645A, 1-(4-{[2-(3-{[4-methanesulfonyl-2-(2,2,2-trifluoroethoxy)phenyl]amino}prop-1-yn-1-yl)-1-(2,2,2-trifluoroethyl)-1H-indol-4-yl]amino}piperidin-1-yl)-3-methoxypropan-2-ol] |
| + (+ = 0 μM ≤ SC150 < 0.05 μM) | COCC(O)CN1CCC(Nc2cccc3c2cc(C#CCOc2ccc(S(C)(=O)=O)cc2N)n3CC(F)(F)F)CC1 (stereo not drawn) [Compound 646A, 1-[4-((2-[3-(2-amino-4-methanesulfonylphenoxy)prop-1-yn-1-yl]-1-(2,2,2-trifluoroethyl)-1H-indol-4-yl}amino)piperidin-1-yl]-3-methoxypropan-2-ol] |
| + (+ = 0 μM ≤ SC150 < 0.05 μM) | CNC(=O)c1ccc(NCC#Cc2cc3c(NC4CCN(C[C@@H](O)COC)CC4)cccc3n2CC(F)(F)F)c(OC)c1 [Compound 647A, 4-({3-[4-({1-[(2R)-2-hydroxy-3-methoxypropyl]piperidin-4-yl}amino)-1-(2,2,2-trifluoroethyl)-1H-indol-2-yl]prop-2-yn-1-yl}amino)-3-methoxy-N-methylbenzamide] |
| + (+ = 0 μM ≤ SC150 < 0.05 μM) | CNC(=O)c1ccc(NCC#Cc2cc3c(NC4CCN(C[C@H](O)COC)CC4)cccc3n2CC(F)(F)F)c(OC)c1 [Compound 648A, 4-({3-[4-({1-[(2S)-2-hydroxy-3-methoxypropyl]piperidin-4-yl}amino)-1-(2,2,2-trifluoroethyl)-1H-indol-2-yl]prop-2-yn-1-yl}amino)-3-methoxy-N-methylbenzamide] |
| + (+ = 0 μM ≤ SC150 < 0.05 μM) | CNC(=O)c1ccc(NCC#Cc2cc3c(NC4CCN(C[C@H](CO)OC)CC4)cccc3n2CC(F)(F)F)c(OC)c1 [Compound 649A, 4-({3-[4-({1-[(2R)-3-hydroxy-2-methoxypropyl]piperidin-4-yl}amino)-1-(2,2,2-trifluoroethyl)-1H-indol-2-yl]prop-2-yn-1-yl}amino)-3-methoxy-N-methylbenzamide] |
| + (+ = 0 μM ≤ SC150 < 0.05 μM) | CNC(=O)c1ccc(NCC#Cc2cc3c(NC4CCN(C[C@@H](CO)OC)CC4)cccc3n2CC(F)(F)F)c(OC)c1 [Compound 650A, 4-({3-[4-({1-[(2S)-3-hydroxy-2-methoxypropyl]piperidin-4-yl}amino)-1-(2,2,2-trifluoroethyl)-1H-indol-2-yl]prop-2-yn-1-yl}amino)-3-methoxy-N-methylbenzamide] |
| + (+ = 0 μM ≤ SC150 < 0.05 μM) | CNc1cc(S(C)(=O)=O)ccc1OCC#Cc1cc2c(NC3CCN(CC(O)COC)CC3)cccc2n1CC(F)(F)F (stereo not drawn) [Compound 651A, l-{4-[(2-{3-[4-methanesulfonyl-2-(methylamino)phenoxy]prop-1-yn-1-yl}-1-(2,2,2-trifluoroethyl)-1H-indol-4-yl)amino]piperidin-1-yl}-3-methoxypropan-2-ol] |
| + (+ = 0 μM ≤ SC150 < 0.05 μM) | CNC(=O)c1ccc(NCC#Cc2cc3c(NC4CCN(CC(O)COC)CC4)cccc3n2CC(F)(F)F)c(OCCF)c1 (stereo not drawn) [Compound 652A, 3-(2-fluoroethoxy)-4-{[3-(4-{[1-(2-hydroxy-3-methoxypropyl)piperidin-4-yl]amino}-1-(2,2,2-trifluoroethyl)-1H-indol-2-yl)prop-2-yn-1-yl]amino}-N-methylbenzamide] |
| + (+ = 0 μM ≤ SC150 < 0.05 μM) | CNC(=O)c1ccc(NCC#Cc2cc3c(NC4CCN(CC(O)COC)CC4)cccc3n2CC(F)(F)F)c(OCCOC)c1 (stereo not drawn) [Compound 653A, 4-{[3-(4-{[1-(2-hydroxy-3-methoxypropyl)piperidin-4-yl]amino}-1-(2,2,2-trifluoroethyl)-1H-indol-2-yl)prop-2-yn-1-yl]amino}-3-(2-methoxyethoxy)-N-methylbenzamide] |
| + (+ = 0 μM ≤ SC150 < 0.05 μM) | CNC(=O)c1ccc(NCC#Cc2cc3c(NC4CCN(CC(O)COC)CC4)cccc3n2CC(F)(F)F)c(OCC#N)c1 (stereo not drawn) [Compound 654A, 3-(cyanomethoxy)-4-{[3-(4-{[1-(2-hydroxy-3-methoxypropyl)piperidin-4-yl]amino}-1-(2,2,2-trifluoroethyl)-1H-indol-2-yl)prop-2-yn-1-yl]amino}-N-methylbenzamide] |
| + (+ = 0 μM ≤ SC150 < 0.05 μM) | CCNC(=O)c1ccc(NCC#Cc2cc3c(NC4CCN(CC(O)COC)CC4)cccc3n2CC(F)(F)F)c(OC)c1 (stereo not drawn) [Compound 655A, N-ethyl-4-{[3-(4-{[1-(2-hydroxy-3-methoxypropyl)piperidin-4-yl]amino}-1-(2,2,2-trifluoroethyl)-1H-indol-2-yl)prop-2-yn-1-yl]amino}-3-methoxybenzamide] |
| + (+ = 0 μM ≤ SC150 < 0.05 μM) | CCC(=O)OCC(CN1CCC(Nc2cccc3c2cc(C#CCNc2ccc(C(=O)NC)cc2OC)n3CC(F)(F)F)CC1)OC(=O)CC (stereo not drawn) [Compound 656A, 1-(4-{[2-(3-{[2-methoxy-4-(methylcarbamoyl)phenyl]amino}prop-1-yn-1-yl)-1-(2,2,2-trifluoroethyl)-1H-indol-4-yl]amino}piperidin-1-yl)-3-(propanoyloxy)propan-2-yl propanoate] |
| + (+ = 0 μM ≤ SC150 < 0.05 μM) | CCC(=O)OC(COC)CN1CCC(Nc2cccc3c2cc(C#CCNc2ccc(C(=O)NC)cc2OC)n3CC(F)(F)F)CC1 (stereo not drawn) [Compound 657A, 1-methoxy-3-(4-{[2-(3-{[2-methoxy-4-(methylcarbamoyl)phenyl]amino}prop-1-yn-1-yl)-1-(2,2,2-trifluoroethyl)-1lH-indol-4-yl]amino}piperidin-1-yl)propan-2-yl propanoate] |
| + (+ = 0 μM ≤ SC150 < 0.05 μM) | CNC(=O)c1ccc(NCC#Cc2cc3c(NC4CCN(CC(O)CO)CC4)cccc3n2CC(F)(F)F)c(OC)c1 (stereo not drawn) [Compound 658A, 4-{[3-(4-{[1-(2,3-dihydroxypropyl)piperidin-4-yl]amino}-1-(2,2,2-trifluoroethyl)-1H-indol-2-yl)prop-2-yn-1-yl]amino}-3-methoxy-N-methylbenzamide] |
| + (+ = 0 μM ≤ SC150 < 0.05 μM) | CNC(=O)c1ccc(NCC#Cc2cc3c(NC4CCN(CC(O)COC)CC4)cccc3n2CC(F)(F)F)c(OCCC#N)c1 (stereo not drawn) [Compound 659A, 3-(2-cyanoethoxy)-4-{[3-(4-{[1-(2-hydroxy-3-methoxypropyl)piperidin-4-yl]amino}-1-(2,2,2-trifluoroethyl)-1H-indol-2-yl)prop-2-yn-1-yl]amino}-N-methylbenzamide] |
